Data from the supplement of paper PMC10307832.

Key:
Assay in all cases: relative viability (nuclei count vs DMSO), 5 days (fraction); higher = more cells survive
[1] = compound: N=C1NC(=O)/C(=C/c2ccc(O)cc2)S1 [Mirin] + CC(=O)c1c(C)c2cnc(Nc3ccc(N4CCNCC4)cn3)nc2n(C2CCCC2)c1=O [Palbociclib] (partner 0.5 µM)
Outline: (§1)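 A single step with final 0.05% Triton X-100, 1% formaldehyde and 1 ug/ml Hoechst fixed the cells and stained nuclei 5 days after treatment. Lung cancer cell lines in 1536-well plates had been treated by pin tool the day after seeding with one drug alone or a fixed anchor-drug dose plus five library-drug doses (not always all listed) in √10 steps, and nuclei were counted on 4× images. Relative viability is the ratio of nuclei in treated wells to nuclei in vehicle wells, taken as the median of duplicate plates.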

[2] = compound: CCn1c(-c2nonc2N)nc2cnc(Oc3cccc(NC(=O)c4ccc(OCCN5CCOCC5)cc4)c3)cc21 + Nc1ncn([C@H]2C[C@H](O)[C@@H](CO)O2)c(=O)n1 [Decitabine] (partner 2 µM)
Outline: as §1

[3] = compound: CCC1=CN=CN=C1N2CCN(CC2)CC3=NC4=C(N3)C=C(C=C4)C(F)(F)F + CC(=O)c1c(C)c2cnc(Nc3ccc(N4CCNCC4)cn3)nc2n(C2CCCC2)c1=O [Palbociclib] (partner 0.5 µM)
Outline: as §1

[4] = compound: CCn1c(-c2nonc2N)nc2cnc(Oc3cccc(NC(=O)c4ccc(OCCN5CCOCC5)cc4)c3)cc21 + CCNC(=O)c1noc(-c2cc(C(C)C)c(O)cc2O)c1-c1ccc(CN2CCOCC2)cc1 [Luminespib] (partner 0.01 µM)
Outline: as §1

UMC-11
relative viability ([1]; first compound 0.25 µM): 0.33
relative viability ([1]; first compound 2.5 µM): 0.317
relative viability ([1]; first compound 7.906 µM): 0.331
relative viability ([1]; first compound 25 µM): 0.309
relative viability ([2]; first compound 0.04 µM): 0.596
relative viability ([2]; first compound 0.1265 µM): 0.528
relative viability ([2]; first compound 0.4 µM): 0.423
relative viability ([2]; first compound 1.265 µM): 0.125
relative viability ([2]; first compound 4 µM): 0.269
relative viability ([3]; first compound 0.04 µM): 0.331
relative viability ([3]; first compound 0.1265 µM): 0.315
relative viability ([3]; first compound 0.4 µM): 0.306
relative viability ([3]; first compound 1.265 µM): 0.221
relative viability ([3]; first compound 4 µM): 0.257
relative viability ([4]; first compound 0.04 µM): 1.03
relative viability ([4]; first compound 0.1265 µM): 0.915
relative viability ([4]; first compound 0.4 µM): 0.83
relative viability ([4]; first compound 1.265 µM): 0.291
relative viability ([4]; first compound 4 µM): 0.222
